Experimental data: ChEMBL document CHEMBL5223146, “Synthesis of esters and amides of 2-aryl-1-hydroxy-4-methyl-1H-imidazole-5-carboxylic acids and study of their antiviral activity against orthopoxviruses” (Bioorg Med Chem Lett, 2023); call rule not given here

Tests used:
Cowpox virus = assay: Antiviral activity against Cowpox virus Grishak infected in Vero cells measured after 4 days by colorimetric assay; format: functional, organism-based; settings: 96 h
Ectromelia virus = assay: Antiviral activity against ectromelia virus K-1 infected in Vero cells measured after 4 days by colorimetric assay; format: functional, organism-based; settings: K-1, Vero, 96 h
[1] = Selectivity index, ratio of CC50 for African green monkey Vero cells to IC50 for Cowpox virus Grishak infected in Vero cells; format: toxicity, cell-based; settings: read-out: Ratio CC50/IC50
[2] = (§1) Cytotoxicity against MDCK cells measured after 4 days by colorimetric assay; format: toxicity, cell-based, Canis lupus familiaris; settings: dog, MDCK cells; time 4 day
[3] = Selectivity index, ratio of CC50 for African green monkey Vero cells to IC50 for Vaccinia virus Copenhagen infected in Vero cells; format: toxicity, cell-based; settings: read-out: Ratio CC50/IC50
Vaccinia virus = assay: Antiviral activity against Vaccinia virus Copenhagen infected in Vero cells measured after 4 days by colorimetric assay; format: functional, organism-based, Orthopoxvirus vaccinia
Influenza A virus = assay: Antiviral activity against Influenza A virus (A/California/07/2009(H1N1)) infected in MDCK cells measured after 4 days by colorimetric assay; format: functional, organism-based
[4] = (§2) Cytotoxicity against African green monkey Vero cells measured after 4 days by colorimetric assay; format: toxicity, cell-based; settings: chlorocebus sabaeus, Vero cells; time 4 day
[5] = Selectivity index, ratio of CC50 for African green monkey Vero cells to IC50 for ectromelia virus K-1 infected in Vero cells; format: toxicity, cell-based; settings: read-out: Ratio CC50/IC50
[6] = Selectivity index, ratio of CC50 for MDCK cells to IC50 for Influenza A virus (A/California/07/2009(H1N1)) infected in MDCK cells; format: toxicity, cell-based; settings: dog, read-out: Ratio CC50/IC50
Vero = assay: as §2; format: toxicity, cell-based; settings: chlorocebus sabaeus, vero, 96 h; time 4 day
MDCK = assay: as §1; format: toxicity, cell-based, Canis lupus familiaris; settings: dog, mdck, 96 h; time 4 day
[7] = Orthopoxvirus vaccinia, Copenhagen, Vero, 96 h, read-out: IC50
[8] = Influenza A virus, A/California/07/2009(H1N1), MDCK, 96 h, read-out: IC50

Row | SMILES | IC50 (Cowpox virus) | IC50 (Ectromelia virus) | selectivity ratio [1] | CC50 at 96 h [2] | selectivity ratio [3] | IC50 (Vaccinia virus; [7]) | IC50 (Influenza A virus; mdck) | CC50 at 96 h [4] | selectivity ratio [5] | selectivity ratio [6] | IC50 (Vaccinia virus; vero) | IC50 (Influenza A virus; [8]) | CC50 (Vero) | CC50 (MDCK)
1 | CCCCNC(=O)c1c(O)nc(-c2ccc([N+](=O)[O-])cc2)n1O | 12.3 µM | 8.9 µM | 16 | 27.2 µM | 66 | 3.02 µM | Not Active | 201 µM | 23 | – | – | – | – | –
2 | CCOC(=O)c1c(O)nc(-c2ccccc2)n1O | – | – | – | > 406 µM | – | – | – | 172 µM | – | 1.9 | Not Active | 213 µM | – | –
3 | CCCCNC(=O)c1c(O)nc(-c2ccccc2[N+](=O)[O-])n1O | – | – | – | > 314 µM | – | – | Not Active | > 314 µM | – | – | Not Active | – | – | –
4 | O=C(NC1CC1)c1c(O)nc(-c2cccc([N+](=O)[O-])c2)n1O | – | – | – | > 331 µM | – | – | Not Active | 261 µM | – | – | Not Active | – | – | –
5 | O=C(NNC(=O)C1C2C=CC(C3CC23)C1C(=O)O)c1ccc(C(F)(F)F)cc1 (centres undefined) | 0.0203 µM | 0.0076 µM | 58.8 | – | 157 | 0.0076 µM | – | – | 157 | – | – | – | 1190 µM | –
6 | O=C(NC1CC1)c1c(O)nc(-c2ccccc2)n1O | – | – | – | > 389 µM | – | – | Not Active | > 389 µM | – | – | Not Active | – | – | –
7 | CCCCNC(=O)c1c(O)nc(-c2ccccc2)n1O | – | – | – | > 366 µM | 6 | 73.4 µM | Not Active | 436 µM | – | – | – | – | – | –
8 | CCOC(=O)c1c(O)nc(-c2cccc([N+](=O)[O-])c2)n1O | – | – | – | > 344 µM | – | – | – | 375 µM | – | 2.9 | Not Active | 118 µM | – | –
9 | CCOC(=O)c1c(O)nc(-c2ccc([N+](=O)[O-])cc2)n1O | 3.23 µM | 1.07 µM | 14 | > 344 µM | 102 | 0.45 µM | – | 45.7 µM | 43 | 1.8 | – | 188 µM | – | –
10 | CCCCNC(=O)c1c(O)nc(-c2cccc([N+](=O)[O-])c2)n1O | – | – | – | > 314 µM | 9 | 17.6 µM | Not Active | 164 µM | – | – | – | – | – | –
11 | O=C(NC1CC1)c1c(O)nc(-c2ccccc2[N+](=O)[O-])n1O | – | – | – | > 331 µM | – | – | Not Active | > 331 µM | – | – | Not Active | – | – | –
12 | CCOC(=O)c1c(O)nc(-c2ccc(C(F)(F)F)cc2)n1O | 10 µM | 6.75 µM | 32 | > 318 µM | 919 | 0.35 µM | Not Active | 322 µM | 46 | – | – | – | – | –
13 | CCCCNC(=O)c1c(O)nc(-c2ccc(C(F)(F)F)cc2)n1O | – | – | – | – | 8 | 3.4 µM | Not Active | 26 µM | – | – | – | – | – | 12.9 µM
14 | O=C(NC1CC1)c1c(O)nc(-c2ccc(C(F)(F)F)cc2)n1O | – | – | – | > 308 µM | 10 | 20.6 µM | Not Active | 202 µM | – | – | – | – | – | –
15 | O=C(NC1CC1)c1c(O)nc(-c2ccc([N+](=O)[O-])cc2)n1O | 22.1 µM | 14.7 µM | 16 | > 331 µM | 33 | 10.7 µM | Not Active | 357 µM | 24 | – | – | – | – | –
16 | CCOC(=O)c1c(O)nc(-c2ccccc2O)n1O | 31.4 µM | 23.6 µM | 58 | > 382 µM | 117 | 15.5 µM | Not Active | 1830 µM | 77 | – | – | – | – | –
17 | O=C(NC1CC1)c1c(O)nc(-c2ccccc2O)n1O | – | – | – | – | – | – | Not Active | – | – | – | Not Active | – | 299 µM | > 366 µM
18 | CCCCNC(=O)c1c(O)nc(-c2ccccc2O)n1O | – | – | – | 42.9 µM | 13 | 15 µM | Not Active | 197 µM | – | – | – | – | – | –
19 | CCOC(=O)c1c(O)nc(-c2ccccc2[N+](=O)[O-])n1O | – | – | – | > 344 µM | – | – | Not Active | 343 µM | – | – | Not Active | – | – | –
20 | Nc1ccn(C[C@@H](CO)OCP(=O)(O)O)c(=O)n1 [CIDOFOVIR] | 46.4 µM | 34 µM | 21 | – | 30 | 32.5 µM | – | – | 29 | – | – | – | 989 µM | –
